Reference: ChEMBL document CHEMBL1148930, “DNA polymerase beta lyase inhibitors from Maytenus putterlickoides” (J Nat Prod, 2004)

What was measured:
DNA polymerase beta = DNA polymerase beta (Rattus norvegicus, UniProt P06766); assay: Inhibition of lyase activity of rat DNA polymerase beta after 30 mins by deoxyribose phosphate excision assay
A549 [1] = assay: Cytotoxicity against human A549 cells assessed as cell viability at 200 uM after 48 hrs by MTT assay relative to control; format: functional; conditions: A549, 48 h, read-out: Activity
A549 [2] = assay: Cytotoxicity against human A549 cells assessed as cell viability at 62.5 uM after 48 hrs by MTT assay relative to control; format: functional; conditions: A549, 48 h, read-out: Activity
A549 [3] = assay: Potentiation of methyl methanesulfonate-induced cytotoxicity against human A549 cells assessed as cell viability after 48 hrs by MTT assay relative to control; format: functional

Compound	IC50 (DNA polymerase beta)	viability at 200 µM (A549 [1])	viability at 62.5 µM (A549 [2])	Activity (A549 [3])
Oc1cc(O)c2c(c1)O[C@H](c1ccc(O)c(O)c1)[C@H](O)C2 [(-)-EPICATECHIN]	18.5 µM	100%	100%	86.6%
C=C(COC(=O)c1ccc(O)cc1)[C@@H]1CC[C@]2(C)CC[C@]3(C)[C@H](C[C@@H](O)[C@@H]4[C@@]5(C)CCC(=O)C(C)(C)[C@@H]5CC[C@]43C)[C@@H]12	62.8 µM	100%	100%	100%
